Entries after “also recorded” stand apart in the source; their conditions may differ.

One data set has as its system airways cell. The data set can be described thus: Theophylline pretreatment before airway delivery of a composition comprising DPSO. The class given is in vivo. Conditions: oral 0.3 mg theophylline to mice about 30 min before composition comprising DPSO. An excerpt:
Finally, the invention relates to a cell which is transfected with a composition as previously defined, in particular a prokaryotic cell, or a yeast or eukaryotic cell, in particular an animal cell, in particular a mammalian cell, more especially a cancerous cell. According to a preferred embodiment of the invention, the said cell is an airways cell, more especially a tracheal or pulmonary cell, advantageously a cell of the respiratory epithelium. In the case of airway delivery, prior administration of bronchodilator compounds (for example, theophylline) could be advantageous.

A further data set relates to plasmid DNA (pTG11033). The data set can be described thus: Plasmid DNA melting curves. The class given is physicochemical. The following applies: 50 μg/ml pTG11033 in 20 mM HEPES pH 7.5, 0-20% DPSO, 35-100° C., 260 nm; versus DNA alone. As for the experimental part: Plasmid DNA melting curves were recorded on a thermostated UV/Visible CARY/VARIAN spectrophotometer (sofware version: 3.04) using 2 quartz cuvettes (L=1cm) with Teflon stopper.

The test system of another data set is pulmonary cells. Kind of data set: Luciferase activity in lungs of mice after intratracheal injection of plasmid/polar compound compositions. In kind it is in vivo. Conditions: B6/SJLF1 mice. As for the experimental part:
The chosen polynucleotide, i.e. the plasmid pTG11033 (FIG. 1), encompasses the gene encoding luciferase placed under the control of the CMV promoter, intron 1 of the HMG gene and the SV40 polyA termination signal. The plasmid DNA contained in 250 μl of a 1 mg/ml solution of purified plasmid (purified by centrifugation in a cesium chloride gradient) is precipitated with ethanol. After having been centrifuged, washed with 70% ethanol and dried, the nucleic acid pellet is taken up in a given volume of DESO or DPSO and of 20 mM Hepes buffer, pH 7.5, in order to give the following compositions as shown in Table I below: The 8-week-old female mice (B6/SJLF1, Iffa Credo) were anaesthetized by means of intraperitoneal injection (physiological saline, […] 1000, xylazine/ROMPUN). […] Each composition is injected into at least three different mice. The expression levels are compared with those obtained after injecting 50 μg of DNA in 50 μl of 20 mM Hepes, pH 7.5, without any addition of polar compound. A control in which the mice are not injected is also included in the protocol. The mice are sacrificed two days after the injections. The lungs and the trachea are treated independently. The tissues are frozen in liquid nitrogen and stored at -80° C. In order to measure the luciferase activity, the tissues are ground up mechanically using a pestle in a mortar which is placed on dry ice. 500 μl or 200 μl of a lysis buffer (Promega) are added to the tissue fragments obtained from the lungs or the trachea, respectively, and the solution is subjected to three steps of freezing/thawing. The cell debris is removed by centrifugation and the luciferase activity (in RLU/min, relative light unit per minute) is measured on 20 μl of supernatant, in accordance with the supplier's (Promega) instructions, by adding 100 μl of reagent and measuring the activity by means of luminescence. The luciferase activity which is measured is standardized in relation to the quantity of protein with the aid of a standard scale which is generated using commercially available luciferase (Promega). […]

As for `Cn1c(=O)c2[nH]cnc2n(C)c1=O` [theophylline], in the data set on airways cell, the “expression level compared with administration without pretreatment” value was “slightly increase of the expression level”.
For `CCC[S+]([O-])CCC` [DPSO, di-n-propyl sulphoxide], in the data set with plasmid DNA (pTG11033), the “Absorbance change upon DNA melting” value is given as “lowered” and the “temperature at which absorbance change (DNA melting) occurs” value is “higher temperature”. The “measured level of expression of the luciferase-encoding gene on increasing the percentage of the compound” value with pulmonary cells (50 μg DNA, FIG. 4) is reported as “improve the measured level of expression”. Also, in the data set on pulmonary cells (50 μg DNA/50 μl, 15% (v/v) polar compound, sacrificed two days after injection, compared with polynucleotide alone), the “expression of the luciferase gene in the pulmonary tissues” value is recorded as “increases expression; also recorded: markedly improved”. The “transfection of the pulmonary cells (luciferase expression)” value in the data set with pulmonary cells (50 μg pTG11033/50 μl, 10 or 15% polar compound, compared with polynucleotide on its own) is “best results”.

Values taken from patent publication US6656734B1, “Compositions for the delivery of polynucleotides to cells” (Transgene S.A., priority 1997, dated 2003).
